Assay results: publication PMC6586855, “Orobol, an Enzyme-Convertible Product of Genistein, exerts Anti-Obesity Effects by Targeting Casein Kinase 1 Epsilon” (Scientific Reports, 2019)

Columns and labels:
[1] = biological target: T1, MUSK (Homo sapiens, UniProt O15146); assay: […]-ATP kinase assay, P81 filter binding; format: biochemical
T1 construct: Reaction Biology kinase panel
T1 sequence (O15146 517-869 limits assumed): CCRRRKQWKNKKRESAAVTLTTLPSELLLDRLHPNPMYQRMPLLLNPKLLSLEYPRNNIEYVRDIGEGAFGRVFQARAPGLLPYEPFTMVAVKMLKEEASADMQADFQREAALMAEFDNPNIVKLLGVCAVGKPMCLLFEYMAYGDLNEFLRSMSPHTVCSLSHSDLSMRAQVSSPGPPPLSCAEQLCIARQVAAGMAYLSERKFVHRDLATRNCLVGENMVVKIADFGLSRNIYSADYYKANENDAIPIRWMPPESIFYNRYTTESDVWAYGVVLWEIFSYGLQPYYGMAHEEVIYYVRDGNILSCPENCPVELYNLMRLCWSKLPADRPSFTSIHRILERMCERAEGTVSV

[2] = biological target: T2, CK1ε (Homo sapiens, UniProt P49674); assay: […]-ATP kinase assay, P81 filter binding; format: biochemical
T2 construct: gene CSNK1E; commercial active kinase; Reaction Biology panel for activity, SignalChem protein for pull-down
T2 sequence (P49674 whole entry): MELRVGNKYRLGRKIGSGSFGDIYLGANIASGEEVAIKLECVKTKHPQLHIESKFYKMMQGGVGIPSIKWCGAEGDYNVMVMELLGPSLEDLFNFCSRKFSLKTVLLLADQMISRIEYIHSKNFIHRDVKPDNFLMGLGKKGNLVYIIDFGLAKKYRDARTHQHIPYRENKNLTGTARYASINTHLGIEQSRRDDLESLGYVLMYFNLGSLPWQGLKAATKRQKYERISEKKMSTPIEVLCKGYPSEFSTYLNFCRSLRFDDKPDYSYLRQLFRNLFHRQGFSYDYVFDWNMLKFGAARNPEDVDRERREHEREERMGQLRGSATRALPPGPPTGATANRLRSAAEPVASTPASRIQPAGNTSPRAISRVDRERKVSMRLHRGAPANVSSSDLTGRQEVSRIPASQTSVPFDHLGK

[3] = biological target: T3, PI3Kγ (Homo sapiens, UniProt P48736); assay: kinase inhibition assay; format: biochemical
T3 construct: gene PIK3CG; commercial kinase
Source text: kinase inhibition assay on PI3Kγ

[4] = biological target: T4, KHS/MAP4K5 (Homo sapiens, UniProt Q9Y4K4); assay: […]-ATP kinase assay, P81 filter binding; format: biochemical
T4 construct: Reaction Biology kinase panel

[5] = biological target: T5, PI3Kβ (Homo sapiens, UniProt P42338); assay: kinase inhibition assay; format: biochemical
T5 construct: gene PIK3CB; commercial kinase; with Phosphatidylinositol 3-kinase regulatory subunit alpha
T5 sequence (P42338 whole entry): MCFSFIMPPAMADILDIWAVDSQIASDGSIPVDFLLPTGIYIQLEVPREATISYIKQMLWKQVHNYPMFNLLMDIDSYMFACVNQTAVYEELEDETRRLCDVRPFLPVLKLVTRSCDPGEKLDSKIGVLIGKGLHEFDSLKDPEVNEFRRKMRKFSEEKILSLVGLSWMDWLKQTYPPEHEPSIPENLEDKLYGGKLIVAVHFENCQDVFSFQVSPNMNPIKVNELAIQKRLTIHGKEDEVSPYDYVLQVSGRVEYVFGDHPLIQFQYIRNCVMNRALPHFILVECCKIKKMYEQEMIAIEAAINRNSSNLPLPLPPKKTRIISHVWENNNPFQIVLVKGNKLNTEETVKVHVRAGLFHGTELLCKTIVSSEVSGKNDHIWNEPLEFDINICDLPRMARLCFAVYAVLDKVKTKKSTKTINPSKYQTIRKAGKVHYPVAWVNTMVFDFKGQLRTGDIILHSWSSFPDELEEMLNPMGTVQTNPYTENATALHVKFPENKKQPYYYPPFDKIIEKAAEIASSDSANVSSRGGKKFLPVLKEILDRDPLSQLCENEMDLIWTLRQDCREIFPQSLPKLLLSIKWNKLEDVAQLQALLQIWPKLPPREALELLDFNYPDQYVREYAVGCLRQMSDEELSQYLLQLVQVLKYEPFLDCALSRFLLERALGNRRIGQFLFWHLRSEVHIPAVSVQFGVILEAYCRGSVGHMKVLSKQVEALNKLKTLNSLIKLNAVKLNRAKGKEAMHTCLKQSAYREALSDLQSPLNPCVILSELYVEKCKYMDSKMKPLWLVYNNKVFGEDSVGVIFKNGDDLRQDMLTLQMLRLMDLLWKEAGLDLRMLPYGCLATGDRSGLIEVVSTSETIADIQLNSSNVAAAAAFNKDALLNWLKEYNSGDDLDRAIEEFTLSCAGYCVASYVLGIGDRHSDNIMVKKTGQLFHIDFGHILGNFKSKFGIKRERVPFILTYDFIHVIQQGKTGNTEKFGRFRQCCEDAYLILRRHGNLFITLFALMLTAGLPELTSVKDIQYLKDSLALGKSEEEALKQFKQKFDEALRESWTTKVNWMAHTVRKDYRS
T5 sequence (P27986 2-724 partner): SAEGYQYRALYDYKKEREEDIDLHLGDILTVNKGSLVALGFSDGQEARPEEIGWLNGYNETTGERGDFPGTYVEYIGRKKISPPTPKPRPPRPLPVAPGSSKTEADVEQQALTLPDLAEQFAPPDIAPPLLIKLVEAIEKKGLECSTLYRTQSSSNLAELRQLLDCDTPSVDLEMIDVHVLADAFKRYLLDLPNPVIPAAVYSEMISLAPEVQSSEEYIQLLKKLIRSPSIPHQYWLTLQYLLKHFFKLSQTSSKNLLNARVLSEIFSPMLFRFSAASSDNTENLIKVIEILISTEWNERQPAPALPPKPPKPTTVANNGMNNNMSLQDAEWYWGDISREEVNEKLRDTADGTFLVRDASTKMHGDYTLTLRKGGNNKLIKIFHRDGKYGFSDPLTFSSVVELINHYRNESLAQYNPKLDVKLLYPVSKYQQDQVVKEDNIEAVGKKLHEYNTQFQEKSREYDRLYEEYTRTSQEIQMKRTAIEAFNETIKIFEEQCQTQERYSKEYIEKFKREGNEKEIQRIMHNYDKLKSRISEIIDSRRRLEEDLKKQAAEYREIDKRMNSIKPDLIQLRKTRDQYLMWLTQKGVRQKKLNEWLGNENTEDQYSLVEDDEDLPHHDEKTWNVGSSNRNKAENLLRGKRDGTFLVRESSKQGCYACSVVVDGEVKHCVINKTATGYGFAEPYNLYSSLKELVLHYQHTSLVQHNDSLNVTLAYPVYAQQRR
Source text: kinase inhibition assay on PI3Kβ

[6] = biological target: T6, PI3Kα (Homo sapiens, UniProt P42336); assay: kinase inhibition assay; format: biochemical
T6 construct: gene PIK3CA; commercial kinase; with Phosphatidylinositol 3-kinase regulatory subunit alpha
Source text: kinase inhibition assay on PI3Kα

[7] = biological target: T7, PBK/TOPK (Homo sapiens, UniProt Q96KB5); assay: […]-ATP kinase assay, P81 filter binding; format: biochemical
T7 construct: Reaction Biology kinase panel
T7 sequence (Q96KB5 1-322): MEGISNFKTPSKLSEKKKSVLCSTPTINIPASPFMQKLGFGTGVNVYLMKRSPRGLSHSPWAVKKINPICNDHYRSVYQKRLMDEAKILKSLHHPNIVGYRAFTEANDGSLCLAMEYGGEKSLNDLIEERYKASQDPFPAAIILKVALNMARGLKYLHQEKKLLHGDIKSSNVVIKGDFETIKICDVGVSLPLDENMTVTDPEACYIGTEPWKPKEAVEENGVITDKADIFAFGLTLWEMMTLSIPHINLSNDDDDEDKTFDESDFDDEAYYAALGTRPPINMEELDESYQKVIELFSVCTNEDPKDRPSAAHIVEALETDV

[8] = biological target: T8, KDR/VEGFR2 (Homo sapiens, UniProt P35968); assay: […]-ATP kinase assay, P81 filter binding; format: biochemical
T8 construct: Reaction Biology kinase panel
T8 sequence (P35968 789-1356 limits assumed): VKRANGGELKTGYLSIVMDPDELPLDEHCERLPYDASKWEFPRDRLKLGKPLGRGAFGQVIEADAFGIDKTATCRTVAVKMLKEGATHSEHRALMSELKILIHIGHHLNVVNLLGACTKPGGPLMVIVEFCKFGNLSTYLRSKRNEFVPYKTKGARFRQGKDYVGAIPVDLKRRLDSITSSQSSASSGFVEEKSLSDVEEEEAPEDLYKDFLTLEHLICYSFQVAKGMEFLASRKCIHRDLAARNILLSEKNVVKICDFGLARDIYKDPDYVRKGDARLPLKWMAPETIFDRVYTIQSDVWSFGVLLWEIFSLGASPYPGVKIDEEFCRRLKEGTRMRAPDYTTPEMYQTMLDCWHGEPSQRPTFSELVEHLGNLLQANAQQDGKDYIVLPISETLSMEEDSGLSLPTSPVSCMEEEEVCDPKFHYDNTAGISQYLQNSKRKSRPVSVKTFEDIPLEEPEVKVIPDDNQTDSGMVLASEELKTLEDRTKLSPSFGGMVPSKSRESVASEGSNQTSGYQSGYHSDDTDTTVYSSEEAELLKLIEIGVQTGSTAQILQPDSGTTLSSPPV

[9] = biological target: T9, MNK1 (Homo sapiens, UniProt Q9BUB5); assay: […]-ATP kinase assay, P81 filter binding; format: biochemical
T9 construct: gene MKNK1; Reaction Biology kinase panel
T9 sequence (Q9BUB5 whole entry): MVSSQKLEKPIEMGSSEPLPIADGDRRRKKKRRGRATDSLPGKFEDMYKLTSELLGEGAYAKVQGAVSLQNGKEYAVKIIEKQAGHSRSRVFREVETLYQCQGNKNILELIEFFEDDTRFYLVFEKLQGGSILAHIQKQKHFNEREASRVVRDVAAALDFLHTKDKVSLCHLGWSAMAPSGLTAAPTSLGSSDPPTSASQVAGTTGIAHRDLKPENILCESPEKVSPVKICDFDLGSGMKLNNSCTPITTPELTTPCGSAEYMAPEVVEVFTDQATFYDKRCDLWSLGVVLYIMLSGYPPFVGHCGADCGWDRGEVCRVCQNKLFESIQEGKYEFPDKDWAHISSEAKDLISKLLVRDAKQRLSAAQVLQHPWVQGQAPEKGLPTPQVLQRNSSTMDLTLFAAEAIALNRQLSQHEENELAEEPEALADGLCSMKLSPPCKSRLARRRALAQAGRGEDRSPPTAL

[10] = biological target: T10, NEK6 (Homo sapiens, UniProt Q9HC98); assay: […]-ATP kinase assay, P81 filter binding; format: biochemical
T10 construct: Reaction Biology kinase panel

[11] = biological target: T11, TNIK (Homo sapiens, UniProt Q9UKE5); assay: […]-ATP kinase assay, P81 filter binding; format: biochemical
T11 construct: Reaction Biology kinase panel

[12] = biological target: T2, CK1ε; assay: pull-down on orobol-Sepharose 4B beads, immunoblot; format: binding; conditions: orobol coupled to beads; pH 7.5, 4 °C; competed by ATP
[13] = biological target: T12, CDK5/p25 (Homo sapiens, UniProt Q00535); assay: […]-ATP kinase assay, P81 filter binding; format: biochemical
T12 construct: Reaction Biology kinase panel; complex with p25, the C-terminal fragment of p35
T12 sequence (Q00535 whole entry, the tested form may be a part): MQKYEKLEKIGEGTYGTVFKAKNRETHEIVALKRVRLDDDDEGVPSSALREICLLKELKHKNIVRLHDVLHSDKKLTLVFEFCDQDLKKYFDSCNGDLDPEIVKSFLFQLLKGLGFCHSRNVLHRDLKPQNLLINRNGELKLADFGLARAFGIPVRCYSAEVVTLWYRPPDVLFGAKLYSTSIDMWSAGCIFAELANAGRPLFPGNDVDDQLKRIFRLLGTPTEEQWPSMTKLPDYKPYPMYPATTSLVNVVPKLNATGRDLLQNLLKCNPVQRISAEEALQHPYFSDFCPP
T12 sequence (Q15078 99-307 partner limits assumed): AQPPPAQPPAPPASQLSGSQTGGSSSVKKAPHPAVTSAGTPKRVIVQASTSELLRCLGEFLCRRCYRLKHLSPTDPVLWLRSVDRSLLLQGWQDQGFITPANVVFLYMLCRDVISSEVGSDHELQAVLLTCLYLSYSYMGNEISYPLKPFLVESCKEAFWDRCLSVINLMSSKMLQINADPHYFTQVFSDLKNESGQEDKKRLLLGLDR

[14] = biological target: T13, PI3Kδ (Homo sapiens, UniProt O00329); assay: kinase inhibition assay; format: biochemical
T13 construct: gene PIK3CD; commercial kinase; with Phosphatidylinositol 3-kinase regulatory subunit alpha
T13 sequence (O00329 whole entry): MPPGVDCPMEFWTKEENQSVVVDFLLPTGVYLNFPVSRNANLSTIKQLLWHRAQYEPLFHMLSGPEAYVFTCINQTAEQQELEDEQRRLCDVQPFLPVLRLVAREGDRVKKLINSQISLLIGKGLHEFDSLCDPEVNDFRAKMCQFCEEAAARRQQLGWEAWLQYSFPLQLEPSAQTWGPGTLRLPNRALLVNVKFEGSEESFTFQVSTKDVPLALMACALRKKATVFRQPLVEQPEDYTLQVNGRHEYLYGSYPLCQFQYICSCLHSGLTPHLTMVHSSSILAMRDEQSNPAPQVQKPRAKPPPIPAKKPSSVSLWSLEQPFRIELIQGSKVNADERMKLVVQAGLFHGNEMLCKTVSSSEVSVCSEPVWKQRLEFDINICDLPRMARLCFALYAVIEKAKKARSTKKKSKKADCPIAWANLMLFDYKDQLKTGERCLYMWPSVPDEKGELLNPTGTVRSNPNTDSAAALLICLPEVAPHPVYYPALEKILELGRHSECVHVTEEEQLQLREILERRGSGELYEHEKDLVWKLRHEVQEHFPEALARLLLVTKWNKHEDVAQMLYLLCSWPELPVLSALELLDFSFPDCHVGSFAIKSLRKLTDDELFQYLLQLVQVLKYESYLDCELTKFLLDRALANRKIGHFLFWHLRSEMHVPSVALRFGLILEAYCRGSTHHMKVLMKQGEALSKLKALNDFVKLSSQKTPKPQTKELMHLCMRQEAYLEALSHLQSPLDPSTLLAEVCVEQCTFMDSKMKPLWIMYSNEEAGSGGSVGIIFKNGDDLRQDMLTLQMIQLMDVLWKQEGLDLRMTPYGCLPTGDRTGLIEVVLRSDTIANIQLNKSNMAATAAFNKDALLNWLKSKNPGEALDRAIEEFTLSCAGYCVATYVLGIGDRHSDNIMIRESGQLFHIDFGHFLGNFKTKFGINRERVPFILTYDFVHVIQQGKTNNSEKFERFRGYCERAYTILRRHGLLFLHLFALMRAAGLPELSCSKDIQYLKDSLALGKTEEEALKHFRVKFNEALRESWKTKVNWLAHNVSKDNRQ
T13 sequence (P27986 2-724 partner): as the sequence (P27986 2-724 partner) above
Source text: kinase inhibition assay on PI3Kδ

[15] = biological target: T14, CK1ε (Mus musculus, UniProt Q9JMK2); assay: pull-down from 3T3-L1 lysate on orobol-Sepharose 4B beads, immunoblot; format: biochemical; conditions: orobol coupled to beads; pH 7.5, 4 °C
T14 construct: gene Csnk1e; endogenous protein in 3T3-L1 preadipocyte lysate, detected with anti-CK1ε antibody
T14 sequence (Q9JMK2 1-416): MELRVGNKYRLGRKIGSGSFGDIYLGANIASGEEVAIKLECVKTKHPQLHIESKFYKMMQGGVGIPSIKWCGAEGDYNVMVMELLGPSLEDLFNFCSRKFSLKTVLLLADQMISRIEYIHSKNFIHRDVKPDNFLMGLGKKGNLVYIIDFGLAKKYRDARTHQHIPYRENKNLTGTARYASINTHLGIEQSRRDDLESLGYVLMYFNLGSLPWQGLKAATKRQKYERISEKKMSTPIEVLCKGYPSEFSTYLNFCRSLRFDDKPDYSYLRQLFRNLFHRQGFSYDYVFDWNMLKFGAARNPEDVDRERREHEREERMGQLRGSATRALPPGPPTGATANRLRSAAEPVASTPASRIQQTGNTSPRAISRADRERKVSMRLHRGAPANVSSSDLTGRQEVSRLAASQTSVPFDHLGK

[16] = biological target: T15, RON/MST1R (Homo sapiens, UniProt Q04912); assay: […]-ATP kinase assay, P81 filter binding; format: biochemical
T15 construct: Reaction Biology kinase panel
T15 sequence (Q04912 979-1400 limits assumed): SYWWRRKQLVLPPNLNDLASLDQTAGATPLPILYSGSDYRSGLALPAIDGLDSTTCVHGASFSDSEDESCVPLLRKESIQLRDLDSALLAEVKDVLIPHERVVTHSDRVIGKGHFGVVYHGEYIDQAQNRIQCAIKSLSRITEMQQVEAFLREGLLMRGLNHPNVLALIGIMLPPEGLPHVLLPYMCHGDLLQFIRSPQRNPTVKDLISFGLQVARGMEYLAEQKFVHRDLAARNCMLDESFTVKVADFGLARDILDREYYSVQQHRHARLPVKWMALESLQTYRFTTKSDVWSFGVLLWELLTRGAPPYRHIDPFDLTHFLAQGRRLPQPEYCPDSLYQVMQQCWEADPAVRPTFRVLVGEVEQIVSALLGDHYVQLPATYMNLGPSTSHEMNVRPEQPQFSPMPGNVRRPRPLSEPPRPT

IC50 [1]: 1.48 µM | IC50 [2]: 1.24 µM | IC50 [3]: 4.76 µM | IC50 [4]: 1.42 µM | IC50 [5]: 5.44 µM | IC50 [6]: 3.46 µM | IC50 [7]: 1.67 µM | IC50 [8]: 4.45 µM | IC50 [9]: 2.13 µM | activity at 1 µM [10]: 79% | IC50 [11]: 1.54 µM | activity at 1 µM [13]: 78% | IC50 [14]: 5.27 µM | activity at 1 µM [16]: 78%
SMILES: O=c1c(-c2ccc(O)c(O)c2)coc2cc(O)cc(O)c12 [orobol]
pull-down on orobol-Sepharose 4B beads, immunoblot [12]: The CK1ε kinase bound to orobol–sepharose 4B beads, but not to control sepharose 4B beads | pull-down from 3T3-L1 lysate on orobol-Sepharose 4B beads, immunoblot [15]: Orobol directly interacts with CK1ε in 3T3-L1 cell lysates
